Source: patent publication US20030191120A1, “Antiparkinsonism drugs” (priority 2000, published 2003)

Legend:
MPTP-treated mice = test: Spontaneous locomotor activity in MPTP-treated mice (Parkinson's disease model); type: in vivo, C57BL/6 mice (male); conditions: MPTP 40 mg/kg x 2 mice, compound (IX) alone 3 mg/kg p.o., P < 0.05 vs MPTP-treated control group
Method: Mice injected with a dopaminergic toxin, MPTP were used as a model for Parkinson's disease and the effects of single administration of compound (IX) on the reduction of the spontaneous locomotor activity caused by MPTP-treatment were examined.
MPTP (40 mg/kg, i.p., saline) was injected twice at 24-hr intervals to C57BL/6 mice (male), and the day after the last administration, the mice were placed in locomotor activity measuring apparatus. After 30 min, compound (IX) alone (0.3, 1, 3 mg/kg, p.o.) was administered.

6-OHDA-treated mice = test: Spontaneous locomotor activity in mice injected intracerebroventricularly with 6-OHDA (Parkinson's disease model); type: in vivo, C57BL/6 mice (male); conditions: 6-OHDA mice
Method: Mice injected intracerebroventricularly with a monoaminergic toxin, 6-OHDA were used as a model for Parkinson's disease.
To C57BL/6 mice (male) were administrated desipramine (desipramine (25 mg/kg, i.p., 0.5%), lactic acid) and 6-OHDA (40 μg/μl/mouse, 0.2% ascorbic acid) was injected in the cerebroventricule after 30 min. The mice were placed in the locomotor activity measuring apparatus after one day. Compound (IX) (0.3, 1 mg/kg), with or without L-DOPA (10 mg/kg, i.p., dissolved in 0.1N HCl and diluted with distilled water or injection, Otsuka Pharmaceutical), was administrated after 90 min, then the spontaneous locomotor activity was measured for 5 hours. When L-DOPA was administrated, mice were pre-treated with carbidopa (25 mg/kg, i.p., 0.5% lactic acid) before 30 min.

[1] = test system: reserpine-induced cataleptic posture; test: Catalepsy test in mice pre-treated with reserpine; type: in vivo, ddy mice (male); conditions: 1 hour after administration
Method: The effects of compound (IX) in single administration and in combination with L-DOPA on cataleptic responses were examined in mice pre-treated with a monoamine-depleting drug, reserpine. Reserpine (5 mg/kg, i.p., Apoplon Inj, Daiichi Pharmaceutical) was administrated to ddy mice (male). On the next day, compound (IX) (0.3, 1, 3 mg/kg, p.o.) with or without L-DOPA (25, 100 mg/kg, i.p., dissolved in 0.1N HCl and diluted with distilled water for injection (Otsuka Pharmaceutical)) was administrated to the mice and catalepsy test was performed after 1 hour. When L-DOPA was administrated, mice were pre-treated with carbidopa (25 mg/kg, i.p., 0.5% lactic acid) before 30 min. The forelimbs or hindlimbs of each mouse were placed on a 4.5 cm high horizontal bar and the time was measured (cut off time 30 sec) until both legs reach the floor. The cataleptic responses were scored as follows (less than 5 sec.: 0 point, 5 sec. to less than 10 sec.: 1 point, 10 sec to less than 15 sec.: 2 points, 15 sec. to than 20 sec.: 3 points, 20 sec. to less than 25 sec.: 4 points, 25 sec. to less than 30 sec.: 5 points, 30 sec. or more: 6 points). For forelimbs, the scores for 3 repetitive tests were summated. For hindlimbs, the tests were performed 5 times and of which 3 scores were summated excluding the highest and lowest scores. The catalepsy scores were calculated as the total scores for forelimbs and hindlimbs.

normal mice = test: Spontaneous locomotor activity after oral administration to normal mice (SCANET apparatus); type: in vivo, C57BL/6 mice (male); conditions: p.o.
Method: The enhancing effects of compound (IX) on the spontaneous locomotor activity were examined in normal mice.
Compound (IX) was orally administrated to C57BL/6 mice (male) and the spontaneous locomotor activity was measured with a locomotor activity measuring apparatus (SCANET, TOYO sangyo). Mice were familiarized to the cage of the apparatus for at least 60 min. Compound (IX) (1,3,10 mg/kg) or vehicle (vehicle, distilled water Otsuka) was administrated orally. The spontaneous locomotor activity was measured for 5 hours after the mice were returned to the cage.

C[C@@H]1OC(=O)N[C@@H]1C(=O)NC(Cc1cscn1)C(=O)N1CCC[C@H]1C (stereo in doubt) [Compound (IX)]
spontaneous locomotor activity, Total (MPTP-treated mice): 5463 ± 700 | spontaneous locomotor activity, Total (MPTP-treated mice; listed as compound (IX)): significantly increased | spontaneous locomotor activity, Total (6-OHDA-treated mice; compound (IX) 1 mg/kg p.o. in combination with L-DOPA 10 mg/kg i.p. (carbidopa pre-treatment), 5 hours, P < 0.01 vs 6-OHDA-treated group): 14468 ± 3618 | spontaneous locomotor activity, Total (6-OHDA-treated mice; compound (IX) 1 mg/kg p.o. in combination with L-DOPA 10 mg/kg i.p. (carbidopa pre-treatment), 5 hours, P < 0.01 vs 6-OHDA-treated group, listed as compound (IX)): significant and remarkable increase | spontaneous locomotor activity, Total (6-OHDA-treated mice; compound (IX) 1 mg/kg p.o. in single administration, measured for 5 hours, 1 mg/kg): 2512 ± 333 | spontaneous locomotor activity, Total (6-OHDA-treated mice; compound (IX) 1 mg/kg p.o. in single administration, measured for 5 hours, listed as compound (IX), 1 mg/kg): did not show significant increase | catalepsy score, mean ([1]; compound (IX) 1 mg/kg p.o. + L-DOPA 100 mg/kg i.p.): 2.3 | catalepsy score, mean ([1]; compound (IX) 1 mg/kg p.o. + L-DOPA 100 mg/kg i.p., listed as compound (IX)): significant depression effect | catalepsy score, mean ([1]; compound (IX) 3 mg/kg p.o. + L-DOPA 100 mg/kg i.p.): 9.2 | catalepsy score, mean ([1]; compound (IX) 3 mg/kg p.o. + L-DOPA 100 mg/kg i.p., listed as compound (IX)): significant depression effect | dose at which the spontaneous locomotor activity was increased (normal mice): ≥ 3 mg/kg
